Measurements from ChEMBL document CHEMBL1151128, “Halleridone, a cytotoxic constituent from Cornus controversa” (J Nat Prod, 1988).
≈ marks a conversion by molar mass, not a printed value.

Key:
P388 = test: Cytotoxicity against mouse P388 cells; assay type: functional, cell-based
[1] = Cytotoxicity against human HeLaS3 cells; assay type: functional, cell-based; settings: HeLa S3

| Structure (SMILES) | IC50 (P388) | IC50 [1] |
| --- | --- | --- |
| CCCCCCCC(=O)O[C@]12C=CC(O)C[C@H]1OCC2 (stereo not given in full) | 8.4 mg/L (≈ 29.7 µM) | 3.5 mg/L (≈ 12.4 µM) |
| CCCCCCCC(=O)O[C@]12C=CC(=O)C[C@H]1OCC2 | 0.3 mg/L (≈ 1.07 µM) | 0.8 mg/L (≈ 2.85 µM) |
| O=C1C=C[C@]2(OC(=O)c3cccc(Cl)c3)CCO[C@@H]2C1 | < 0.1 mg/L | 1.2 mg/L (≈ 4.1 µM) |
| O=C1C=C[C@]2(OC(=O)c3ccccc3)CCO[C@@H]2C1 | 0.5 mg/L (≈ 1.94 µM) | 1.6 mg/L (≈ 6.19 µM) |
| CC(=O)O[C@]12C=CC(=O)C[C@H]1OCC2 | 0.5 mg/L (≈ 2.55 µM) | 4.1 mg/L (≈ 20.9 µM) |
| CCCC(=O)O[C@]12C=CC(=O)C[C@H]1OCC2 | 0.6 mg/L (≈ 2.68 µM) | 2.7 mg/L (≈ 12 µM) |
| CCCCCC(=O)O[C@]12C=CC(O)C[C@H]1OCC2 (stereo not given in full) | 38.5 mg/L (≈ 151 µM) | 5.3 mg/L (≈ 20.8 µM) |
| O=C1C=C[C@]2(OC(=O)c3ccccc3Cl)CCO[C@@H]2C1 | 0.4 mg/L (≈ 1.37 µM) | 1 mg/L (≈ 3.42 µM) |
| CC(=O)O[C@]12C=CC(O)C[C@H]1OCC2 (stereo not given in full) | > 100 mg/L | > 100 mg/L |
| O=C1C=C[C@]2(OC(=O)c3ccc(Cl)cc3)CCO[C@@H]2C1 | 0.7 mg/L (≈ 2.39 µM) | 0.9 mg/L (≈ 3.07 µM) |
| CCCCCC(=O)O[C@]12C=CC(=O)C[C@H]1OCC2 | 0.3 mg/L (≈ 1.19 µM) | 1.8 mg/L (≈ 7.13 µM) |
| O=C1C=C[C@]2(O)CCO[C@@H]2C1 [HALLERIDONE] | 2.1 mg/L (≈ 13.6 µM) | 2.8 mg/L (≈ 18.2 µM) |
| OC1C=C[C@]2(O)CCO[C@@H]2C1 (stereo not given in full) | 40.8 mg/L (≈ 261 µM) | > 100 mg/L |
| CCCC(=O)O[C@]12C=CC(O)C[C@H]1OCC2 (stereo not given in full) | > 100 mg/L | 8.8 mg/L (≈ 38.9 µM) |
| O=C1CC[C@]2(O)CCO[C@@H]2C1 | 43 mg/L (≈ 275 µM) | > 100 mg/L |
